Experiment [1] addresses TvVip2 (Trichoderma virens, UniProt G9N0G3, F40H). In words: X-ray crystal structure, […] Å. In kind it is binding. As to conditions: active site, anaerobic.
The target of experiment [2] is T1, TvVip2 (Trichoderma virens, UniProt G9N0G3).
T1 sequence (G9N0G3 32-328): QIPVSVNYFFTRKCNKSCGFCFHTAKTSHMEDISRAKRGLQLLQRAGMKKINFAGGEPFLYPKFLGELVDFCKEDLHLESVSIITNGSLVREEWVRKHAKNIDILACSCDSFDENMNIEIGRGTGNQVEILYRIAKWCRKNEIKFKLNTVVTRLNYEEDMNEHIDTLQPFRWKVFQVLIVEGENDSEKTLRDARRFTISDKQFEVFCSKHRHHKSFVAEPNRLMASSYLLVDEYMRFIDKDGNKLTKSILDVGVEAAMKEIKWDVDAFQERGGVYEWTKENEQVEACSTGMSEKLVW
Put plainly: X-ray crystal structure, […] Å. The experiment is classed as binding. The conditions noted are these: active site, anaerobic.

The target in experiment [3] is T2, TvVip1 CTP-swap V2 (Trichoderma virens, UniProt Z9USF9BXN2).
T2 sequence (Z9USF9BXN2 24-317): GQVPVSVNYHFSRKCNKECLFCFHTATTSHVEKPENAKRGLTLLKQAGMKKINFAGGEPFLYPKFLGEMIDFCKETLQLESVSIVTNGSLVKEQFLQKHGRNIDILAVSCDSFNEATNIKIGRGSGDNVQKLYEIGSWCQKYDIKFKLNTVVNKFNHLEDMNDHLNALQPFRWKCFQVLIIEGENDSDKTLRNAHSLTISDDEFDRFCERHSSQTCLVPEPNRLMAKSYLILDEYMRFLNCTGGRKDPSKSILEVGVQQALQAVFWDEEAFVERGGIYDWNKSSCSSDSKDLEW
In words: competition: deu-5'-dA formation by LC-MS, Cheng-Prusoff from IC50 and Km. The experiment is classed as biochemical. As to conditions: calculated from average IC50 and Km; competitive assumption; 1 mM deuCTP, 1 mM SAM, 10 μM enzyme, dithionite, HEPES pH 7.5.

Experiment [4] has as its target T3, TvVip1 (Trichoderma virens, UniProt G9MQB8). Put plainly: competition: loss of deu-5'-dA formation from […] deuterated NTP, LC-MS. The experiment is classed as biochemical.
For experiment [5], the target named is T3, TvVip1. In words: competition: deu-5'-dA formation by LC-MS, Cheng-Prusoff from IC50 and Km. The experiment is classed as biochemical. The conditions noted are these: calculated from average IC50 and Km; competitive assumption; 1 mM deuUTP, 1 mM SAM, 10 μM enzyme, dithionite, HEPES pH 7.5.
Experiment [6] addresses T2, TvVip1 CTP-swap V2. The experiment is described as above. In kind it is biochemical. As to conditions: calculated from average IC50 and Km; competitive assumption; 1 mM deuUTP, 1 mM SAM, 10 μM enzyme, dithionite, HEPES pH 7.5.

SMILES strings stand for the structures.

With `C[S+](CC[C@H](N)C(=O)O)C[C@H]1O[C@@H](n2cnc3c(N)ncnc32)[C@H](O)[C@@H]1O` (stereo partly drawn) [SAM], the “X-ray crystal structure, 2.3 Å” value at TvVip2 [1] (with CTP and [4Fe-4S]) was “TvVip2 F40H (PDB: 9DFU) in the presence of CTP and SAM”. The “X-ray crystal structure, 1.5 Å” value at TvVip2 [2] (with CTP and [4Fe-4S]) was “contain strong electron density representing the radical SAM [4Fe-4S] cluster, SAM, and CTP”.
The term IC50 denotes the concentration that inhibits the measured activity by half. Higher therefore signals weaker potency. `O=c1ccn([C@@H]2O[C@H](COP(=O)(O)OP(=O)(O)OP(=O)(O)O)[C@@H](O)[C@H]2O)c(=O)[nH]1` [UTP]: on TvVip1 CTP-swap V2 [3], the “Ki (UTP)” value is more than 59 µM. In addition, the IC50 on TvVip1 [4] stood at 19 ± 5.7 µM.
Consider `Nc1ccn([C@@H]2O[C@H](COP(=O)(O)OP(=O)(O)OP(=O)(O)O)[C@@H](O)[C@H]2O)c(=O)n1` [CTP], for which the “Ki (CTP)” value on TvVip1 [5] is more than 360 µM; at TvVip1 CTP-swap V2 [6] it was 0.22 µM. The same molecule gave a concentration for half-maximal inhibition (IC50) on TvVip1 [4] of more than 4900 µM. The “X-ray crystal structure, 2.3 Å” value on TvVip2 [1] (with SAM and [4Fe-4S]) is “TvVip2 F40H (PDB: 9DFU) in the presence of CTP and SAM”. Moreover, the “X-ray crystal structure, 1.5 Å” value at TvVip2 [2] (with SAM and [4Fe-4S]) is “contain strong electron density representing the radical SAM [4Fe-4S] cluster, SAM, and CTP”.

The values above are taken from PMC13288134 (Structure (London, England : 1993), 2025).
